Data published in US6075054A, “Ortho-substituted benzoylguanidines, process for their preparation, their use as a medicament or diagnostic, and medicament comprising them” (Hoechst Aktiengesellschaft, priority 1997, dated 2000).
Structures can show the parent of a compound that is named as a salt.

Biological target: T1, Na^+ /H^+ exchanger of rabbit erythrocytes (Oryctolagus cuniculus, UniProt P23791)
T1 construct: endogenous in cells; host or cells: erythrocytes in whole blood of White New Zealand rabbits (Ivanovas) fed 2% cholesterol
Assay: Inhibition of the Na^+ /H^+ exchanger of rabbit erythrocytes (amiloride-sensitive sodium influx, flame photometry)
Type: cell-based, rabbit (White New Zealand)
Details: erythrocytes of rabbits on 2% cholesterol diet; hyperosmolar salt-sucrose medium, pH 7.4, 37° C.
Text: Inhibition of the Na^+ /H^+ exchanger of rabbit erythrocytes White New Zealand rabbits (Ivanovas) received a standard diet with 2% cholesterol for six weeks in order to activate the Na^+ /H^+ exchange and thus to be able to determine the Na^+ -influx into the erythrocytes via Na^+ /H^+ exchange by flame photometry. The blood was taken from the auricular arteries and rendered incoagulable by 25 IU of potassium-heparin. A part of each sample was used for the duplicate determination of the hematocrits by centrifugation. Aliquots of 100 μl in each case were used for the measurement of the Na^+ starting content of the erythrocytes.
In order to determine the amiloride-sensitive sodium influx, 100 μl of each blood sample were incubated in 5 ml in each case of a hyperosmolar salt-sucrose medium (mmol/l: 140 NaCl, 3 KCl, 150 sucrose, 0.1 ouabain, 20 tris-hydroxymethylaminomethane) at pH 7.4 and 37° C. The erythrocytes were then washed three times with ice-cold MgCl2 -ouabain solution (mmol/l: 112 MgCl2, 0.1 ouabain) and hemolyzed in 2.0 ml of distilled water. The intracellular sodium content was determined by flame photometry.
The Na^+ net influx was calculated from the difference between sodium starting values and the sodium content of the erythrocytes after incubation. […]

T1 sequence (P23791 whole entry): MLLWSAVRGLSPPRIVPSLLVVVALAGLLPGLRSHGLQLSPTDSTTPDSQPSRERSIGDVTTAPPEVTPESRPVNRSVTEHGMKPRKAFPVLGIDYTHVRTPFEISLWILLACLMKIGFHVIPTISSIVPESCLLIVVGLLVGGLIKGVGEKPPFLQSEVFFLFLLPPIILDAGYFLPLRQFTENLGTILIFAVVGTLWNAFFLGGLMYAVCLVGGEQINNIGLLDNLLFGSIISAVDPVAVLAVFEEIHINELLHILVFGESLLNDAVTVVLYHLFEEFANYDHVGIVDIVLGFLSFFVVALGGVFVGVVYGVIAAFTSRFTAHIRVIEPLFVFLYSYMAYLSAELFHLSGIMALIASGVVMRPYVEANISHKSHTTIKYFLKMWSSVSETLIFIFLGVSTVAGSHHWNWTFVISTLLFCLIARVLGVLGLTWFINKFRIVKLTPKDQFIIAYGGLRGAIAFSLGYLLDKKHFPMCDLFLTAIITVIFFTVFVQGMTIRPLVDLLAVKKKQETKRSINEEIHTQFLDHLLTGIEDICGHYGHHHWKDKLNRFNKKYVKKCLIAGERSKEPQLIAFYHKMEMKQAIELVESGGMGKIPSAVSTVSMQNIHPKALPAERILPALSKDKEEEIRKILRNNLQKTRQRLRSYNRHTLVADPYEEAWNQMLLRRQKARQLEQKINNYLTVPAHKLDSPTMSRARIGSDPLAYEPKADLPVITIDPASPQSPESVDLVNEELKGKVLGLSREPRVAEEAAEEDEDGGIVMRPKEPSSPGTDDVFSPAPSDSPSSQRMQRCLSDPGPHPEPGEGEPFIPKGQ

Cc1cc(C(C)CO)c(C(F)(F)F)cc1C(=O)N=C(N)N (racemic) [Example 1, hydrochloride]
IC50: 1.2 nM
